Consider 6 molecules from US10413541B2, “Oxabicycloheptanes and oxabicycloheptenes for the treatment of depressive and stress disorders” (LIXTE BIOTECHNOLOGY, INC., priority 2015, dated 2019).

Type in all cases: cell-based, mice
Experiment [1] deals with GABAB-GIRK currents in LHb neurons. The note with it: for I-baclofen, residual current independent of GIRKs: barium 1 mM in the bath.
For experiment [2], the system named is LHb neurons. Description: Current-clamp excitability (evoked action potentials, input-output curve) of LHb neurons in slices. The note with it: baclofen bath application, saturating dose. The protocol:
(§1) Animals were anesthetized with Ketamine/Xylazine (50 mg/10 mg Kg-1 i.p.; Sigma-Aldrich, France). The preparation of LHb-containing brain slices was done in bubbled ice-cold 95% O2/5% CO2-equilibrated solution containing (in mM): cholineCl 110; glucose 25; NaHCO3 25; MgCl2 7; ascorbic acid 11.6; Na+-pyruvate 3.1; KCl 2.5; NaH2PO4 1.25; CaCl2 0.5. Sagittal slices (250 μm) were stored at room temperature in 95% O2/5% CO2-equilibrated artificial cerebrospinal fluid (ACSF) containing (in mM): NaCl 124; NaHCO3 26.2; glucose 11; KCl 2.5; CaCl2 2.5; MgCl2 1.3; NaH2PO4 1. Recordings (flow rate of 2.5 ml/min) were made under an Olympus-BX51 microscope (Olympus, France) at 32° C. Currents were amplified, filtered at 5 kHz and digitized at 20 kHz. Access resistance was monitored by a step of −4 mV (0.1 Hz). Experiments were discarded if the access resistance increased more than 20%.
(§2) The internal solution to measure GABAB-GIRK currents and neuronal excitability contained 140 mM potassium gluconate, 4 mM NaCl, 2 mM MgCl2, 1.1 mM EGTA, 5 mM HEPES, 2 mM Na2ATP, 5 mM sodium creatine phosphate, and 0.6 mM Na3GTP (pH 7.3), with KOH. When we measured the synaptic inhibitory or excitatory release the internal solution contained (in mM): CsCl 130; NaCl 4; MgCl2 2; EGTA 1.1; HEPES 5; Na2ATP 2; Na+-creatine-phosphate 5; Na3GTP 0.6, and spermine 0.1. The liquid junction potential was −3 mV. For cell-attached recordings the internal solution consisted in ACSF.
For the Okadaic acid (OA) and the CaMKII inhibitor KN93 experiments, respectively 100 nM of OA or 10 μM of KN93 were added in the internal solution. For the PP2A inhibitor LB100 experiments, LB100 (0.1 μM) was applied in the bath. Miniature excitatory postsynaptic currents (mEPSCs) were recorded in voltage-clamp mode at −60 mV in presence of bicuculine (10 μM) and TTX (1 μM). Miniature inhibitory postsynaptic currents (mIPSCs) were recorded (−60 mV) in presence of NBQX (20 μM) and TTX (1 μM). EPSCs and IPSCs were evoked through an ACSF filled monopolar glass electrode placed 200 μm from the recording site in the stria medullaris. AMPA:NMDA ratios of evoked-EPSC were obtained by AMPA-EPSC −60 mV/NMDA-EPSCs at +40 mV. Rectification Index (RI) was computed by […]-60/AMPA-EPSC+40. For the experiments in which high-frequency stimulation trains were used to determine presynaptic release probability, QX314 (5 mM) was included in the internal solution to prevent the generation of sodium spikes. Current-clamp experiments, were performed by a series of current steps (negative to positive) injected to induce action potentials (5-10 pA injection current per step, 800 ms).

In experiment [3] the test system is LHb neurons. Description: Cell-attached recording of spontaneous firing of LHb neurons. The note with it: baclofen application, then CGP54626 10 μM. As for the experimental part:
as §1, §2
(§3) Cell-attached recordings in ACSF were performed in GΩ seal with a Vc=0 and Hc=0. Whole-cell voltage clamp recordings were achieved to measure GABAB-GIR currents in presence of Bicuculine (10 μM), NBQX (20 μM) and AP5 (50 μM). […] GABAB-GIRK currents were confirmed by antagonism with either 10 μM of CGP54626, a specific GABAB antagonist or 1 mM Ba^2, a selective inhibitor of inward rectifiers. For the GTPγS experiment, 100 μM of GTPγS was added to the internal solution in place of Na3GTP.

The subject of the next experiment is GIRK channels. Description: GTPγS-induced Ba2+-sensitive outward current (I-GTPγS) in LHb neurons of brain slices. The note with it: GTPγS 100 μM in the internal solution. As for the experimental part:
as §1, §3

The mark [4] stands for this setting: KN93 10 μM intracellular dialysis.
[5] abbreviates: Okadaic acid 100 nM intracellular dialysis.

“Also recorded” adds a separate entry of the source. Read-outs that look alike come from different tables or passages of the source.

Molecule `COc1ccc(S(=O)(=O)N(CCO)c2ccccc2CN(C)C/C=C/c2ccc(Cl)cc2)cc1` [KN93] showed an I-baclofen current in experiment [1] (KN93 10 μM in the internal solution, CTRL mice) of 106.3±18.37 pA. In experiment [1] (setting [4]), the “FsE induced reduction of GABAB-GIRK currents” value is recorded as “failed to recover; also recorded: does not affect” and the “I-Baclofen at baseline (control mice)” value was “did not affect”.

As for `NCC(CC(=O)O)c1ccc(Cl)cc1` (centres unmarked) [baclofen], the “Firing of LHb neurons evoked by current steps (20 pA)” value is “only partially decreased” in the experiment on LHb neurons [2] (FsE animals) and “significantly depressed” with LHb neurons [2] (control mice). Further, the I baclofen in experiment [1] (1 h after exposure to fox urine (OPE mice)) stood at 47.4±7.9; in experiment [1] (CTRL mice of odor predator exposure paradigm) it was 110.5±29.1. In addition, the I-baclofen was determined as 121.7±14.8 in experiment [1] (CTRL mice of restraint stress procedure); 55.4±7.2 pA in experiment [1] (baclofen 100 μM, FsE mice, 1 hour after); 59.8±9.6 pA in experiment [1] (baclofen 100 μM, FsE mice, 1 day after); 40.1±9.0 pA in experiment [1] (baclofen 100 μM, FsE mice, 7 days after); 39.6±6.6 pA in experiment [1] (baclofen 100 μM, FsE mice, 14 days after); 133.0±26.1 pA in experiment [1] (baclofen 100 μM, FsE mice, 30 days after). The I-baclofen in experiment [1] (restraint stress (RS) mice, 1 h after the procedure) was found to be 68.3±15.3. For the same molecule, the “I-baclofen, residual current independent of GIRKs” value in experiment [1] (CTRL mice) turned out to be 21.3±3.7; in experiment [1] (FsE mice), 21.3±9.1. Further, the “Firing rate of LHb neurons” value in the experiment with LHb neurons [3] (CTRL mice) was determined as 0.33±0.11 Hz; in the experiment with LHb neurons [3] (FsE mice), 4.89±1.40 Hz.

For the molecule `[Ba+2]` [barium], in experiment [1] (barium 1 mM), the “Effect on I-Baclofen” value is given as “abolished”.

For the molecule `C[C@H](NC[C@H](O)CP(=O)(O)CC1CCCCC1)c1ccc(Cl)c(Cl)c1` [CGP54626], in experiment [1] (CGP54626 10 μM), the “Reversal of I-baclofen” value is given as “fully reversed; also recorded: readily reversed”. Besides, the “Firing rate of LHb neurons” value was found to be 3.62±0.65 Hz in the experiment with LHb neurons [3] (CTRL mice) and 8.23±2.25 Hz with LHb neurons [3] (FsE mice).

As to `C=C1[C@@H](O)[C@@H]2O[C@]3(CC[C@H](/C=C/[C@@H](C)[C@@H]4CC(C)=C[C@@]5(O[C@H](C[C@@](C)(O)C(=O)O)CC[C@H]5O)O4)O3)CC[C@H]2O[C@@H]1[C@@H](O)C[C@H](C)[C@H]1O[C@@]2(CCCCO2)CC[C@H]1C` [Okadaic Acid], the I-baclofen current in experiment [1] (Okadaic Acid 100 nM in the internal solution, CTRL mice) was 130.7±25.25 pA; in experiment [1] (Okadaic Acid 100 nM in the internal solution, FsE mice), 120.4±25.61 pA. The “I-baclofen CTRL vs FsE” value in experiment [1] (Okadaic Acid 100 nM intracellular dialysis, listed as OA) was “comparable to control mice”; in experiment [1] (setting [5]), “no difference between groups”. The “I-Baclofen at baseline (control mice)” value in experiment [1] (setting [5]) is listed as “comparable to naïve condition”.

For the molecule `Nc1nc2c(ncn2[C@@H]2O[C@H](COP(=O)(O)OP(=O)(O)OP(O)(O)=S)[C@@H](O)[C@H]2O)c(=O)[nH]1` [GTPγS, reference compound], the “GTPγS-evoked Ba2+-sensitive outward current” value stood at 92.55±21.83 pA with GIRK channels (CTRL mice) and 38.00±5.27 pA in the experiment with GIRK channels (FsE mice).
